Assay results published in patent US20090220432A1, “Imaging agents and methods of using same for detecting multidrug resistance in cancer” (The Johns Hopkins University, priority 2005, published 2009).
Entries after “also recorded” stand apart in the source; their conditions may differ.

How the values were obtained:
MCF-7^adr cells [1] = test: Fluorescent microscopy of contrast agent uptake; format: cell-based, Human
Experimental: (§1) Cells were treated with 100 μg/ml DMCD prior to the exposure to Tat-GdDOTA-TAMRA. An Eclipse E400 microscope with a C-SHG1 super high pressure mercury lamp and a Coolpix 5000 digital camera (Nikon Inc., Tokyo, Japan) was used for fluorescent microscopy. Exposure time= 1/15 s, magnification=×40.
(§2) In addition to the above experiments, collected cell pellets were incubated with 250 μl of Tat-GdDOTA-TAMRA (0.5 mg/ml in EMEM) for 20 min at 37° C. in the 5% CO2 incubator. After consecutive washing with PBS, cells were fixed in 3% paraformaldehyde for 15 min. As a control, cells were incubated with EMEM alone. To inhibit multidrug resistance mechanisms, 100 μM of DMCD was added to cells for 20 min prior to exposure to Tat-GdDOTA-TAMRA. In each step, cells were washed thoroughly. TAMRA fluorescence was detected in the orange-red region using band-selective emission filters centered around 600 nm.

MCF-7^adr cells [2] = test: Flow cytometry (FACS) of contrast agent uptake; format: cell-based, Human
Experimental: FIG. 4 is a graph showing fluorescence detection of Tat-GdDOTA-TAMRA taken up by MCF-7^wt and MCF-7^adr cells after exposure to 0.5 mg/ml of same for 20 min. Dotted lines represent controls (line “a”: MCF-7^wt; line “b”: MCF-7^adr). Solid lines represent the cells treated with Tat-GdDOTA-TAMRA (line “c”: MCF-7^wt; line “d”: MCF-7^adr). […] A FACSCalibur (Becton Dickinson Biosciences, San Jose, Calif., U.S.A.) was used for flow cytometry. Acquisition and analysis were performed with Cell Quest software (Becton Dickinson Biosciences, San Jose, Calif., U.S.A.).
as §2

MCF-7^wt cells [3] = test: In vitro MRI T1 measurement of labeled cells; format: cell-based, Human
Experimental: as §2
(§3) Confocal microscopy. MCF-7^wt and MCF-7^adr cell lines were separately seeded in each 4-chamber glass slide (Nalge Nunc International Corp., Naperville, Ill., U.S.A.). Cells were incubated with 250 μl of Tat-GdDOTA-TAMRA (10 μg/ml) for 30 min in the 5% CO2 incubator. Cell nuclei were stained with DAPI ([…]) for 5 min. Cells were fixed with 3% paraformaldehyde for 15 min, and mounted under a coverslip following removal of plastic chambers. Confocal studies were performed with an inverted Zeiss LSM 410 confocal microscope (Carl Zeiss AG, Jena, Germany) using a 40× water immersion lens. In vitro MRI study. For the in vitro MRI study, the cell labeling procedure followed the protocol used for flow cytometry and microscopy studies, except that 20 µM of cyclosporin A was used, rather than DMCD as a multidrug resistance inhibitor. Cell suspensions were transferred into micro-centrifuge PCR tubes. MRI was carried out on a Bruker horizontal bore 9.4T spectrometer (Bruker Biospin GmbH, Rheinstetten, Germany) equipped with shielded gradients. The Paravision 3.0.2 program (Bruker Biospin GmbH) was used as acquisition software. […] Quantitative T1, maps of the samples were reconstructed using custom-written software in the IDL programming environment Research Systems Inc., Boulder, Colo., U.S.A.) that runs on Linux workstations. Final analysis was performed with the Image) program. (NIH, Bethesda, Md., U.S.A.).

MCF-7^adr cells [4] = test: In vitro MRI T1 measurement of labeled cells; format: cell-based, Human
Experimental: as §2, §3

MCF-7^wt cells [5] = test: Fluorescent microscopy of contrast agent uptake; format: cell-based, Human; conditions: 0.5 mg/ml for 20 min
Experimental: as §1, §2

[6] = T1 relaxivity of the agent at 9.4T; format: physicochemical
Excerpt: (§4) Materials. An HIV-1 Tat basic domain peptide-GdDOTA-carboxytetramethylrhodamine conjugates (Tat-GdDOTA-TAMRA, MW=2,989; as shown in FIG. 1) was custom-synthesized by Global Peptide Services, LLC (Fort Collins, Colo., U.S.A.). The specific T1 relaxivity (R,) of the agent at 9.4T is 4.9 (sec·mM)^−1. Monoclonal anti-P-gp [P-7965], streptavidin-QR conjugates [S-2899], and rhodamine 123 [R-8004] were purchased from Sigma Chemical Company (St. Louis, Mo., U.S.A.). Heptakis-(2,6-di-O-methyl)-β-cyclodextrin (DMCD) and cyclosporin A were purchased from Sigma-Aldrich Co. (St. Louis, Mo., U.S.A.). 4′,6-diamidino-2-phenylindole (DAPI) was obtained from Invitrogen Corp. (Carlsbad, Calif., U.S.A.). All other chemicals were obtained as reagent-grade products. Cell lines. Human breast adenocarcinoma (MCF-7^wt) and its multi-drug-resistant variant (MCF-7^adr) were maintained in Eagle's minimum essential medium (EMEM) with 1% penicillin, streptomycin, and 10% fetal bovine serum at 37° C. with 5% CO2. For MCF-7^adr cells, the growth medium was supplemented with 1.5 μM of adriamycin every medium change. Flow cytometry and fluorescent microscopy. Initially, to check P-gp expression and P-gp function of both cell lines, flow cytometry was implemented using a double staining technique as follows. […]

MCF-7^wt cells [7] = test: Confocal microscopy of contrast agent with DAPI nuclei staining; format: cell-based, Human; conditions: wild type cells, 10 μg/ml for 30 min
Experimental: (§5) Confocal microscopy. MCF-7^wt and MCF-7^adr cell lines were separately seeded in each 4-chamber glass slide (Nalge Nunc International Corp., Naperville, Ill., U.S.A.). Cells were incubated with 250 μl of Tat-GdDOTA-TAMRA (10 μg/ml) for 30 min in the 5% CO2 incubator. Cell nuclei were stained with DAPI ([…]) for 5 min. Cells were fixed with 3% paraformaldehyde for 15 min, and mounted under a coverslip following removal of plastic chambers. Confocal studies were performed with an inverted Zeiss LSM 410 confocal microscope (Carl Zeiss AG, Jena, Germany) using a 40× water immersion lens. In vitro MRI study. […] A saturation recovery snapshot-FLASH pulse sequence with an excitation pulse flip angle of 10 degrees, an echo time of 1.245 ms, and ten T1, saturation recovery delays (50, 100, 250, 500, 1,000, 1,500, 2,000, 3,000, 5,000, 12,000 ms) were used (Bhujwalla, Z. M., Artemov, D., Natarajan, K., Ackerstaff, E. & Solaiyappan, M., “Vasuclar Differences Detected by MRI for Metastatic Versus Nonmetastatic Breast and Prostate Cancer Xenografts”, Neoplasia 3, 143-153 (2002)). Quantitative T1, maps of the samples were reconstructed using custom-written software in the IDL programming environment Research Systems Inc., Boulder, Colo., U.S.A.) that runs on Linux workstations. […]

MCF-7^adr cells [8] = test: as above; format: cell-based, Human; conditions: MDR cells, 10 μg/ml for 30 min
Experimental: as §5

MCF-7^wt cells [9] = test: Flow cytometry of rhodamine 123 uptake (double staining with anti-P-gp); format: cell-based, Human; conditions: 30 min incubation
Excerpt: as §4

MCF-7^adr cells [10] = test: as above; format: cell-based, Human; conditions: 30 min incubation
Excerpt: as §4

wild type KB tumor = conditions: cited from earlier work
[11] = MRI relaxation times of water sample doped with GdDTPA; format: physicochemical; conditions: water sample doped with GdDTPA (0.05 M)
[12] = MCF-7^adr, 0.5 mg/ml for 20 min

In the case of `COC[C@H]1O[C@@H]2O[C@H]3[C@H](O)[C@@H](OC)[C@@H](O[C@H]4[C@H](O)[C@@H](OC)[C@@H](O[C@H]5[C@H](O)[C@@H](OC)[C@@H](O[C@H]6[C@H](O)[C@@H](OC)[C@@H](O[C@H]7[C@H](O)[C@@H](OC)[C@@H](O[C@H]8[C@H](O)[C@@H](OC)[C@@H](O[C@H]1[C@H](O)[C@H]2OC)O[C@@H]8COC)O[C@@H]7COC)O[C@@H]6COC)O[C@@H]5COC)O[C@@H]4COC)O[C@@H]3COC` [DMCD, Heptakis-(2,6-di-O-methyl)-β-cyclodextrin, reference compound], the “retention of Tat-GdDOTA-TAMRA conjugates after MDR inhibitor pre-treatment (microscopy)” value (MCF-7^adr cells [1]; MCF-7^adr pre-treated with inhibitor for 20 min) is reported as “high retention” and the “uptake of Tat-GdDOTA-TAMRA after MDR inhibitor pre-treatment (FACS)” value (MCF-7^adr cells [2]; MCF-7^adr pre-treated with inhibitor) is reported as “recovered almost to the level typical for wild type cells”.

In the case of “HIV-1 Tat basic domain peptide-GdDOTA-carboxytetramethylrhodamine conjugates [Tat-GdDOTA-TAMRA]”, the T1 (MCF-7^wt cells [3]; MCF-7^wt cells, 0.5 mg/ml agent for 20 min, 9.4T MRI, averaged T1) is reported as 1.79 ± 0.02 s, the “T1 reduction (ΔT1)” value (MCF-7^wt cells [3]; MCF-7^wt, treated vs control (Table 1 columns 2 and 3)) is reported as 0.54 ± 0.11 s and the “effect on T1 relaxation time” value (MCF-7^wt cells [3]; wild type cells, 0.5 mg/ml) is reported as “significantly decreased; also recorded: significantly reduced”. The T1 (MCF-7^adr cells [4]; MCF-7^adr cells, 0.5 mg/ml agent for 20 min, 9.4T MRI, averaged T1) was 2.05 ± 0.06 s, the “T1 reduction (ΔT1)” value (MCF-7^adr cells [4]; MCF-7^adr, treated vs control (Table 1 columns 6 and 7)) was 0.3 ± 0.11 s and the “effect on T1 relaxation time” value (MCF-7^adr cells [4]; MDR cells treated with the conjugates alone) was “almost no decrease”. The “uptake by fluorescence microscopy” value (MCF-7^wt cells [5]) was “Efficient uptake”, the “fluorescence detected by microscopy” value (MCF-7^adr cells [1]; [12]) was “Lower or no fluorescence” and the “specific T1 relaxivity” value [6] was 4.9 s/mM. The “intracellular localization (confocal)” value (MCF-7^wt cells [7]) was “co-localized with nuclei”, the “intracellular localization (confocal)” value (MCF-7^adr cells [8]) was “significantly less compound and less co-localization with nuclei” and the “agent delivered into cells by FACS, in comparison to MCF-7^wt” value (MCF-7^adr cells [2]; [12]) was “significantly lower”.

With rhodamine 123 the “accumulation of rhodamine 123” value (MCF-7^wt cells [9]) was “efficient accumulation” and the “accumulation of rhodamine 123” value (MCF-7^adr cells [10]) was “reduced accumulation”.

For `[C-]#[N+]CC(C)(C)OC.[C-]#[N+]CC(C)(C)OC.[C-]#[N+]CC(C)(C)OC.[C-]#[N+]CC(C)(C)OC.[C-]#[N+]CC(C)(C)OC.[C-]#[N+]CC(C)(C)OC.[Tc]` [[^99mTc]SESTAMIBI], the retention in tumor (wild type KB tumor) is given as “retained”.

`O=C([O-])CN(CCN(CC(=O)[O-])CC(=O)O)CCN(CC(=O)[O-])CC(=O)O.[Gd+3]` [GdDTPA] gave a T1 relaxation time [11] of ~25 ms and a T2 relaxation time [11] of ~25 ms.
